# Data reported in PubChem BioAssay (NCI).
#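 Cells were grown in 96-well plates and exposed to each compound for 48 hours at five concentrations; endpoints were interpolated linearly between bracketing concentrations, or set to the highest concentration if not reached. Definition used: TGI = concentration required for complete inhibition of growth.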
# Assays:
# Assay in all cases: growth of human tumour cells (NCI), 48 h
# K-562 leukemia = tested on: K-562 leukemia
# U251 CNS = tested on: U251 CNS
# SF-539 CNS = tested on: SF-539 CNS
# HOP-92 NSCLC = tested on: HOP-92 NSCLC
# MDA-MB-435 = tested on: MDA-MB-435
# HCT-15 colon = tested on: HCT-15 colon
# NCI-H460 lung = tested on: NCI-H460 lung
# SNB-19 CNS = tested on: SNB-19 CNS
# UO-31 renal = tested on: UO-31 renal
# MOLT-4 leukemia = tested on: MOLT-4 leukemia
# OVCAR-3 ovarian = tested on: OVCAR-3 ovarian
# SF-295 CNS = tested on: SF-295 CNS
# RXF 393 renal = tested on: RXF 393 renal
Compound,TGI (K-562 leukemia) [µM],TGI (U251 CNS) [µM],TGI (SF-539 CNS) [µM],TGI (HOP-92 NSCLC) [µM],TGI (MDA-MB-435) [µM],TGI (HCT-15 colon) [µM],TGI (NCI-H460 lung) [µM],TGI (SNB-19 CNS) [µM],TGI (UO-31 renal) [µM],TGI (MOLT-4 leukemia) [µM],TGI (OVCAR-3 ovarian) [µM],TGI (SF-295 CNS) [µM],TGI (RXF 393 renal) [µM]
CCOC(=O)c1csc(NC(=O)CCCC#N)n1,> 100,> 100,> 100,> 100,> 100,> 100,> 100,> 100,> 100,> 100,> 100,> 100,> 100
COc1cc(/C=C/C(=O)O)ccc1OS(=O)(=O)O,> 100,> 100,> 100,> 100,> 100,> 100,> 100,> 100,> 100,> 100,> 100,> 100,> 100
COn1cc(CO)c2ccccc21,> 100,> 100,> 100,> 100,> 100,> 100,> 100,> 100,> 82,> 100,> 100,> 100,47.8
O=S1(=O)c2ccccc2NC(=S)N1c1ccccc1,> 100,> 100,> 100,45.3,> 100,> 100,> 100,> 100,> 100,> 100,> 100,> 100,> 100
Cc1ccc(C(=O)c2[nH]c(Nc3cc(C)ccn3)c(C(=S)Nc3ccccc3)c2N)cc1,> 100,> 100,> 100,> 100,> 100,> 100,> 100,> 100,> 100,> 100,> 100,> 100,> 100
OCC1OC(O[C@H]2CN3[C@H](O)[C@@H](O)[C@H](O)[C@H]3C2O)C(O)C(O)C1O (stereo partly specified),> 100,> 100,> 100,> 100,> 100,> 100,> 100,> 100,> 100,> 100,> 100,> 100,> 100
Clc1cccc(C2ON=C(c3ccccc3)N2C23CC4CC(CC(C4)C2)C3)c1Cl (stereo unspecified),> 10,> 10,> 10,> 10,> 10,> 10,> 10,> 10,> 10,> 10,> 10,> 10,> 10
